Tested on: New Zealand rabbits with normal intraocular pressure
Assay: Reduction of intraocular pressure by repeated eye-drop administration for 14 days, experiment operation 1
Format: in vivo
Conditions: for Change of intraocular pressure: negative control minus group
From the text: Experimental example 4. Experiment on reduction of intraocular pressure and ocular toxicity of New Zealand rabbits with normal intraocular pressure by repeated eye-drop administration for 14 days
The intraocular pressure reduction action and the potential ocular toxicity of compound 63 were explored by 14 days of repeated eye-drop administration in rabbits with normal intraocular pressure.
Male New Zealand rabbits, aged 97-127 days, weighted 2.6-3.5 kg, purchased from PizhouDongfang Breeding Co. Ltd.
The male New Zealand rabbits were randomly divided into 7 groups, with 6 rabbits per group. Animals were randomly divided according to body weight Animals in 1-7 groups were eye-dropped with solvent/control sample/test sample in both eyes, the volume of the administration was all 50 μL/eye, once per day for 14 consecutive days, and the day of the administration was recorded as Day 1. On Day 1, intraocular pressure of the animals was measured before the administration and in 1, 2, 4, 6, 8 and 10 hours after the administration, respectively; on Days 2-14, intraocular pressure of the animals was measured in 1 hour after daily administration for the group administered with K-115, and intraocular pressure of the animal was measured in 4 hours after daily administration for the other groups.

[1] = 0.5 mg/mL once per day, Day 2, 4 hours after daily administration
[2] = 0.5 mg/mL once per day, Day 3, 4 hours after daily administration
[3] = 0.5 mg/mL once per day, Day 4, 4 hours after daily administration
[4] = 0.5 mg/mL once per day, Day 5, 4 hours after daily administration
[5] = 0.5 mg/mL once per day, Day 6, 4 hours after daily administration
[6] = 0.5 mg/mL once per day, Day 7, 4 hours after daily administration
[7] = 1.0 mg/mL once per day, Day 2, 4 hours after daily administration
[8] = 1.0 mg/mL once per day, Day 3, 4 hours after daily administration
[9] = 1.0 mg/mL once per day, Day 4, 4 hours after daily administration
[10] = 1.0 mg/mL once per day, Day 5, 4 hours after daily administration
[11] = 1.0 mg/mL once per day, Day 6, 4 hours after daily administration
[12] = 1.0 mg/mL once per day, Day 7, 4 hours after daily administration
[13] = 2.0 mg/mL once per day, Day 2, 4 hours after daily administration
[14] = 2.0 mg/mL once per day, Day 3, 4 hours after daily administration
[15] = 2.0 mg/mL once per day, Day 4, 4 hours after daily administration
[16] = 2.0 mg/mL once per day, Day 5, 4 hours after daily administration
[17] = 2.0 mg/mL once per day, Day 6, 4 hours after daily administration

Cc1ccc(C(=O)OCn2cc(C)c3c(S(=O)(=O)N4CC[C@H](N)C4)cccc3c2=O)c(C)c1 [Compound 63]
Mean intraocular pressure of both eyes (0.5 mg/mL both eyes, Day 1, 1 hour after administration): 8.83 mmHg | Mean intraocular pressure of both eyes (0.5 mg/mL both eyes, Day 1, 2 hours after administration): 7.56 mmHg | Mean intraocular pressure of both eyes (0.5 mg/mL both eyes, Day 1, 4 hours after administration): 7.11 mmHg | Mean intraocular pressure of both eyes (0.5 mg/mL both eyes, Day 1, 6 hours after administration): 9.61 mmHg | Mean intraocular pressure of both eyes (0.5 mg/mL both eyes, Day 1, 8 hours after administration): 9.06 mmHg | Mean intraocular pressure of both eyes (0.5 mg/mL both eyes, Day 1, 10 hours after administration): 9.97 mmHg | Mean intraocular pressure of both eyes (0.5 mg/mL both eyes, Day 1, before administration): 10.11 mmHg | Mean intraocular pressure of both eyes [1]: 7.94 mmHg | Change of intraocular pressure [1]: 3.14 mmHg | Mean intraocular pressure of both eyes [2]: 7.31 mmHg | Change of intraocular pressure [2]: 3.08 mmHg | Mean intraocular pressure of both eyes [3]: 7.78 mmHg | Change of intraocular pressure [3]: 2.83 mmHg | Mean intraocular pressure of both eyes [4]: 7.19 mmHg | Change of intraocular pressure [4]: 3.78 mmHg | Mean intraocular pressure of both eyes [5]: 6.61 mmHg | Change of intraocular pressure [5]: 2.7 mmHg | Mean intraocular pressure of both eyes [6]: 6.00 mmHg | Change of intraocular pressure [6]: 4.06 mmHg | Change of intraocular pressure (0.5 mg/mL once per day, Day 8, 4 hours after daily administration): 4.2 mmHg | Change of intraocular pressure (0.5 mg/mL once per day, Day 9, 4 hours after daily administration): 3.25 mmHg | Change of intraocular pressure (0.5 mg/mL once per day, Day 10, 4 hours after daily administration): 3 mmHg | Change of intraocular pressure (0.5 mg/mL once per day, Day 11, 4 hours after daily administration): 3.25 mmHg | Change of intraocular pressure (0.5 mg/mL once per day, Day 12, 4 hours after daily administration): 3.28 mmHg | Change of intraocular pressure (0.5 mg/mL once per day, Day 13, 4 hours after daily administration): 3.31 mmHg | Change of intraocular pressure (0.5 mg/mL once per day, Day 14, 4 hours after daily administration): 3.72 mmHg | Change of intraocular pressure (0.5 mg/mL, Day 1, 1 hour after administration): 1.48 mmHg | Change of intraocular pressure (0.5 mg/mL, Day 1, 2 hours after administration): 3.41 mmHg | Change of intraocular pressure (0.5 mg/mL, Day 1, 4 hours after administration): 4.2 mmHg | Change of intraocular pressure (0.5 mg/mL, Day 1, 6 hours after administration): 2.33 mmHg | Change of intraocular pressure (0.5 mg/mL, Day 1, 8 hours after administration): 3.91 mmHg | Change of intraocular pressure (0.5 mg/mL, Day 1, 10 hours after administration): 4.45 mmHg | Change of intraocular pressure (0.5 mg/mL, Day 1, before administration): −0.22 mmHg | Mean intraocular pressure of both eyes (1.0 mg/mL both eyes, Day 1, 1 hour after administration): 7.08 mmHg | Mean intraocular pressure of both eyes (1.0 mg/mL both eyes, Day 1, 2 hours after administration): 6.67 mmHg | Mean intraocular pressure of both eyes (1.0 mg/mL both eyes, Day 1, 4 hours after administration): 6.44 mmHg | Mean intraocular pressure of both eyes (1.0 mg/mL both eyes, Day 1, 6 hours after administration): 8.00 mmHg | Mean intraocular pressure of both eyes (1.0 mg/mL both eyes, Day 1, 8 hours after administration): 9.22 mmHg | Mean intraocular pressure of both eyes (1.0 mg/mL both eyes, Day 1, 10 hours after administration): 10.56 mmHg | Mean intraocular pressure of both eyes (1.0 mg/mL both eyes, Day 1, before administration): 9.94 mmHg | Mean intraocular pressure of both eyes [7]: 7.64 mmHg | Change of intraocular pressure [7]: 3.44 mmHg | Mean intraocular pressure of both eyes [8]: 7.50 mmHg | Change of intraocular pressure [8]: 2.89 mmHg | Mean intraocular pressure of both eyes [9]: 7.33 mmHg | Change of intraocular pressure [9]: 3.28 mmHg | Mean intraocular pressure of both eyes [10]: 7.44 mmHg | Change of intraocular pressure [10]: 3.53 mmHg | Mean intraocular pressure of both eyes [11]: 6.92 mmHg | Change of intraocular pressure [11]: 2.39 mmHg | Mean intraocular pressure of both eyes [12]: 7.00 mmHg | Change of intraocular pressure [12]: 3.06 mmHg | Change of intraocular pressure (1.0 mg/mL once per day, Day 8, 4 hours after daily administration): 4.03 mmHg | Change of intraocular pressure (1.0 mg/mL once per day, Day 9, 4 hours after daily administration): 2.5 mmHg | Change of intraocular pressure (1.0 mg/mL once per day, Day 10, 4 hours after daily administration): 2.44 mmHg | Change of intraocular pressure (1.0 mg/mL once per day, Day 11, 4 hours after daily administration): 2.19 mmHg | Change of intraocular pressure (1.0 mg/mL once per day, Day 12, 4 hours after daily administration): 2.64 mmHg | Change of intraocular pressure (1.0 mg/mL once per day, Day 13, 4 hours after daily administration): 3.33 mmHg | Change of intraocular pressure (1.0 mg/mL once per day, Day 14, 4 hours after daily administration): 3.53 mmHg | Change of intraocular pressure (1.0 mg/mL, Day 1, 1 hour after administration): 3.23 mmHg | Change of intraocular pressure (1.0 mg/mL, Day 1, 2 hours after administration): 4.3 mmHg | Change of intraocular pressure (1.0 mg/mL, Day 1, 4 hours after administration): 4.87 mmHg | Change of intraocular pressure (1.0 mg/mL, Day 1, 6 hours after administration): 3.94 mmHg | Change of intraocular pressure (1.0 mg/mL, Day 1, 8 hours after administration): 3.75 mmHg | Change of intraocular pressure (1.0 mg/mL, Day 1, 10 hours after administration): 3.86 mmHg | Change of intraocular pressure (1.0 mg/mL, Day 1, before administration): −0.05 mmHg | Mean intraocular pressure of both eyes (2.0 mg/mL both eyes, Day 1, 1 hour after administration): 8.56 mmHg | Mean intraocular pressure of both eyes (2.0 mg/mL both eyes, Day 1, 2 hours after administration): 7.47 mmHg | Mean intraocular pressure of both eyes (2.0 mg/mL both eyes, Day 1, 4 hours after administration): 7.47 mmHg | Mean intraocular pressure of both eyes (2.0 mg/mL both eyes, Day 1, 6 hours after administration): 7.25 mmHg | Mean intraocular pressure of both eyes (2.0 mg/mL both eyes, Day 1, 8 hours after administration): 8.44 mmHg | Mean intraocular pressure of both eyes (2.0 mg/mL both eyes, Day 1, 10 hours after administration): 9.67 mmHg | Mean intraocular pressure of both eyes (2.0 mg/mL both eyes, Day 1, before administration): 9.67 mmHg | Mean intraocular pressure of both eyes [13]: 7.03 mmHg | Change of intraocular pressure [13]: 4.05 mmHg | Mean intraocular pressure of both eyes [14]: 7.25 mmHg | Change of intraocular pressure [14]: 3.14 mmHg | Mean intraocular pressure of both eyes [15]: 6.86 mmHg | Change of intraocular pressure [15]: 3.75 mmHg | Mean intraocular pressure of both eyes [16]: 6.47 mmHg | Change of intraocular pressure [16]: 4.5 mmHg | Mean intraocular pressure of both eyes [17]: 5.92 mmHg | Change of intraocular pressure [17]: 3.39 mmHg
